The source of these data is patent publication US10744209B2, “Biodegradable polymeric nanoparticle conjugates and use thereof” (NEW YORK UNIVERSITY, priority 2015, dated 2020).

For data set [1] the following is noted: cited from earlier work.
For the next data set, the system named is RAW264.7 cells. In words: RANKL-induced osteoclast differentiation, TRAP staining. In kind it is cell-based. The settings on record: 50 ng/ml RANKL; CGS21680 10^−6M; four days. On the procedure: Tartrate-resistant acid phosphatase (TRAP) staining was carried out. The number of TRAP-positive MNCs containing ≥3 nuclei/cell was scored.

Consider `Nc1ncnc2c1ncn2[C@@H]1O[C@H](CO)[C@@H](O)[C@H]1O` [Adenosine, adenosine], for which the half-life in vivo in data set [1] is below 10 s.
`CCNC(=O)[C@H]1O[C@@H](n2cnc3c(N)nc(NCCc4ccc(CCC(=O)O)cc4)nc32)[C@H](O)[C@@H]1O` [CGS21680]: the RANKL-induced osteoclast differentiation result in the data set with RAW264.7 cells was “block”.
